Measurements: PMC4633953, “FR171456 is a specific inhibitor of mammalian NSDHL and yeast Erg26p” (Nature Communications, 2015)
pIC50: −log10 of the molar value.

How the values were obtained:
F. solani = assay: Combination with clinical antifungal agents (Loewe synergy, growth by OD530); format: cell-based; details: in presence of FR171456 6.67 and 20 μM
Procedure: incubated for 24 h in increasing combined doses of FR171456 and Amphotericin B, and growth
assessed by OD530. (a) Normalised growth rates plotted as % inhibition of growth. (b) Loewe excess
heat map showing difference between predicted scores based upon the addition of each agent
alone and the actual values detected plotted as difference in % of inhibition. (c) Loewe isobologram
- a comparison of the doses of each compound needed to achieve 50% inhibition of proliferation.

[1] = test system: S. cerevisiae (BY4743 strain); assay: Yeast growth inhibition dose response (OD600); format: cell-based; details: Saccharomyces cerevisiae, 14 h, BY4743, 14 h, 30 °C, YPD, 2% DMSO
Procedure: Figure 2 FR171456 targets Erg26p in S. cerevisiae. (a) Structures of FR171456, and two related triterpenes (compound 1, compound 2). (b) Duplicate 12-point Dose response curves of wild-type diploid yeast with three compounds in a. Strain BY4743 was grown for 14 h at 30 °C in YPD media with 2% DMSO containing a dilution series of FR171456: black; Compound-1: light grey circles, and Compound-2: light grey squares. Y axis: OD600 absorbance indicating yeast growth, x axis: compound concentrations (log10 μM). (c) Haploinsufficiency and homozygous profiling (HIP resp. HOP) for FR171456 at 4 μM. Each mutant strain in the pool is represented by a circle (non-essential genes) or a square (essential genes). The, y axis represents strain sensitivity and x axis represents z-score (specificity). In (d), the z-scores of the HIP pool strains (y axis) plotted against increasing doses of FR171456 (x axis; μM). (e) Relative compound sensitivity profile of the erg26Δ/ERG26 strain across HIP experiments performed with 1,800 diverse small molecule yeast proliferation inhibitors. TEXT PRINTED IN THE PICTURE: (a) FR171456: MW 516.68; S.c. […] IC50 >200 μM | (a) Compound 2: MW 532.68; S.c. IC50 >200 μM

Erg26p [2] = target: T1, Erg26p (Saccharomyces cerevisiae, UniProt P53199); assay: In vitro microsomal Erg26p activity assay (GC-MS)
T1 sequence (P53199 1-349): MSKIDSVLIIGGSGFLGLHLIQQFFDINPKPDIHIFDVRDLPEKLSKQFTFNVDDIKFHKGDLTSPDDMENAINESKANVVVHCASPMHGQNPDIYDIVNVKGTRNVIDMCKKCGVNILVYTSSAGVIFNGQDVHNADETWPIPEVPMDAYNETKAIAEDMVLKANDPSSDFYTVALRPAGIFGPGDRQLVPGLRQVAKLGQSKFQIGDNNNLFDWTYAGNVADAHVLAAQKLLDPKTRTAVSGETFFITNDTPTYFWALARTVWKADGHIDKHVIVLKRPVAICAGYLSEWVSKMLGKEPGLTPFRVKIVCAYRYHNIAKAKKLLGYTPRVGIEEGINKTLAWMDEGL
Procedure: To test this hypothesis an in vitro microsomal Erg26p activity assay[30] was used. Erg26p activity was directly assessed in the presence of increasing concentrations of FR171456 (10 nM–0.1 mM) in the presence of 150 μM carboxysterol substrate (Fig. 1c) and the cofactor NAD^+ (0.5 mM) followed by GC-MS detection of the product 4α-methyl-cholest-8,24-dien-3-one.
Wild-type yeast (FL200) microsomes were prepared as follows. Yeast cells were disrupted by glass bead homogenization (0.45-mm diameter) in 100 mM phosphate buffer (pH 7.5) containing 1.5 mM reduced glutathione and 30 mM nicotinamide for 8 min at 0 °C[44]. The cell extract was obtained by centrifugation at 10,000 × g for 20 min. Microsomes were then isolated by centrifuging the cell extract supernatant at 100,000 × g for 90 min. The resulting microsomal pellet was resuspended in 100 mM phosphate buffer (pH 7.5) containing 3 mM reduced glutathione and 20% glycerol (v/v) using an Elvehjem–Potter homogenizer. Yeast microsomes (1.2 mg of protein) were incubated in the presence of 4α-carboxy-4β-methyl-cholest-8,24-dien-3β-ol (50–300 mM) and NAD^+ (0.5 mM) for 35–45 min at 30 °C. After addition of coprostanone (2–6 μg) as internal standard, the reactions were extracted as described previously[12]. The extract was analysed by TLC on silica gel and eluted twice with CH2Cl2. The fraction migrating between a standard of 4-desmethyl-sterone (RF= 0.50) and 4,4-dimethyl-sterone (RF=0.70) was eluted and analysed using a GC-MS spectrometer (Agilent 5973 N).
In the case of inhibition assays, microsomes were incubated for 35–45 min at 30 °C in the presence of 4α-carboxy-4β-methyl-cholest-8,24-dien-3β-ol (50–300 mM) and a range of inhibitor concentration (0.01–100 μM) from which a dose–response curve was obtained allowing the corresponding I50 values to be determined.
The GC-MS spectrometer (Agilent 5973 N) was equipped with an ‘on column' injector and a capillary column (30 × 0.25 mm) coated with DB5 (H2 flow rate of 2 ml min^−1). The temperature program included a 30 °C min^−1 increase from 60 °C to 240 °C, and followed by a 2 °C/min increase from 240 °C to 280 °C. The areas of the GC peaks of coprostanone (tR=1.000) and of the produced 4α-methyl-cholest-8,24-dien-3-one (tR=1.139), corrected from endogenous component of the same tR (1.139) determined in the blank (boiled microsomes), allowed the rate of transformation of 4α-carboxy-4β-methyl-cholest-8,24-dien-3β-ol to be measured. Under these conditions, the estimated limit of detection of the 3βHSD/D activity was 0.1 nmol h^−1 mg^−1.

Erg26p [3] = target: T1, Erg26p; details: wild-type yeast Erg26p ref 32; cited from earlier work
[4] = test system: ergosterol pathway intermediates in C. albicans SC5314; assay: Focused metabolomics: 13C-labelled ergosterol pathway intermediates in C. albicans; format: cell-based; details: increasing doses
Procedure: For ^13C- labelling studies, the wild type C. albicans strain SC5314 was obtained from ATCC (Manassas, VA) and was cultured at 30 °C in YPD broth (1% yeast extract, 2% peptone, 2% dextrose) or Synthetic Medium (3% glycerol, 0.1% glucose, 65 mM NH4Cl, 1.7 mM NaCl, 7 mM KH2PO4, 1 mM CaCl2, 0.5 mM MgSO4).
Approximately 1.25 × 10^8 C. albicans cells from a saturated YPD culture were inoculated into 100 ml Synthetic Medium (SM) and grown at 30 °C to an OD of 1.0. Cells were washed once in modified SM (25 mM KPO4 pH 7.0, with glucose omitted) and suspended to 5 OD600 units per ml in modified SM.
Labelling reactions were performed in 12-ml glass tubes with PTFE-lined caps (Corning) and containing 1 ml cell suspension (∼6 × 10^7 cells), 10 μl DMSO or 10 μl compound dissolved in DMSO, 12 μl 1M D-Glucose (U^-13C6 glucose), and 10 μl 1 M (1,2^-13C2) sodium acetate (Cambridge Isotope Laboratories, Inc). Before LC-MS analysis, dried lipid extracts were dissolved in 500 μl methanol, vortexed and sonicated for 10 min.
Squalene, ergosterol, lanosterol and zymosterol were quantified using the tandem mass spectrometer API4000 triple quadrupole (AB Sciex) with atmospheric pressure chemical ionization (APCI), interfaced to an Agilent LC.
Cells (∼6 × 10^7) and compounds were preincubated 15 min at 30 °C (without shaking) before the addition of labelled substrates. Labelling was performed at 30 °C with shaking for 4 h. Reactions were stopped by adding 1 ml 30% KOH, 1 ml 100% ethanol, and 0.2 ml 2% pyrogallol. Samples were mixed and then heated at 80 °C for 30 min, then cooled to room temperature. Non-saponifiable lipids were extracted two times in petroleum ether, washed with water, dried under nitrogen gas and stored at −80 °C.
For compound calibration, 2 μM solutions in 0.1% formic acid were directly infused into the mass spectrometer. Ergosterol, lanosterol and zymosterol undergo dehydration and their molecular species are detected as [M+H-H2O]^+ while squalene is detected as [M+H]^+. Supplementary Table 4 lists the multiple reaction monitoring parameters of the sterols and squalene, as well as the ^13C incorporated metabolites. The mass spectrometer source parameters are the following: CUR=40, GS1=60, NC=4.5. TEM=450 CAD=4. A mobile phase of 0.2% formic acid in methanol and isocratic run at 0.4 ml min^−1 was employed to separate the metabolites on a Waters XBridge C18 3.5 μm 2.1 × 50 mm column. The run time was 4.5 min.

C[C@@H]1[C@H](O)[C@@H](C)/C=C/C=C/C=C/C=C/C=C/C=C/C=C/[C@H](O[C@@H]2O[C@H](C)[C@@H](O)[C@H](N)[C@@H]2O)C[C@@H]2O[C@](O)(C[C@@H](O)C[C@@H](O)[C@H](O)CC[C@@H](O)C[C@@H](O)CC(=O)O[C@H]1C)C[C@H](O)[C@H]2C(=O)O [Amphotericin B, reference compound]
amount of Amphotericin B required for maximal inhibition (F. solani): halved

C=C(CCC(C)C1CCC2C1(C)CC(O)C13CC14C(=O)CC(O)C(C)(C(=O)NCc1ccccc1)C4C(=O)CC23O)C(C)C [Compound 1, (1R,2aR,3R,5aR,5bS,7aR,8S,9S,11aS,12aR)-N-benzyl-1,5b,9-trihydroxy-2a,8-dimethyl-3-((R)-6-methyl-5-methyleneheptan-2-yl)-7,11-dioxohexadecahydrocyclopenta[a]cyclopropa[e]phenanthrene-8-carboxamide]
pIC50 [1]: < 3.70 | pIC50 (Erg26p [2]): < 3.30 | decrease of inhibition relative to FR171456 (Erg26p [2]): > 300 fold

C=C(CCC(C)C1CCC2C1(C)CC(O)C13CC14C(=O)CC(O)C(C)(C(=O)O)C4C(=O)CC23O)C(C)CO [Compound 2, (1R,2aR,3R,5aR,5bS,7aR,8S,9S,11aS,12aR)-1,5b,9-trihydroxy-3-((2R)-7-hydroxy-6-methyl-5-methyleneheptan-2-yl)-2a,8-dimethyl-7,11-dioxohexadecahydrocyclopenta[a]cyclopropa[e]phenanthrene-8-carboxylic acid]
pIC50 [1]: < 3.70

CC(C)=CCC[C@@H](C)[C@H]1CC[C@H]2C3=C(CC[C@]12C)[C@@]1(C)CC[C@H](O)[C@@](C)(C(=O)O)C1CC3 (stereo partly drawn) [carboxysterol substrate, 4α-carboxy-4β-methyl-cholest-8,24-dien-3β-ol]
Km (Erg26p [3]): 550 µM

OC(Cn1cncn1)(Cn1cncn1)c1ccc(F)cc1F [fluconazole, reference compound]
effect on 13C-labelled ergosterol [4]: decrease | effect on 13C-labelled lanosterol [4]: accumulation | effect on 13C-labelled zymosterol [4]: decrease
